What all share (type): cell-based
The subject of one test is CD57 positive T cells. Description: CD57 positive T cell number after CD3/CD28 stimulation of human PBMCs for 4 days, flow cytometry. The note with it: tacrolimus 10 nM, dexamethasone 1 μM, two donors. The protocol:
(§1) PBMCs were separated from human peripheral blood by Ficoll centrifugation and added to a 96-well U-bottom microplate in an amount of 4×10^5 cells/well. Human IL-2 (PeproTech, Inc., final concentration: 100 ng/mL) and Dynabeads Human T-Activator CD3/CD28 (Life Technologies Corp., 4×105 beads/well) were added thereto, and T cells were activated by culture for 4 days. The obtained cells were recovered, suspended in a FACS buffer (PBS, 0.1% BSA, and 0.1% sodium azide), and then reacted with Human BD Fc Block (Becton, Dickinson and Company) at room temperature for 10 minutes. […] The data was analyzed using FlowJo (manufactured by Tree Star Inc). After removal of the LIVE/DEAD Fixable Dead Cell Stain Kit-near-IR fluorescent reactive dye-positive dead cells by gating, only the living cells were analyzed by further gating CD3 positive and CD8 positive CD8 T cells.
(§2) The effect of the humanized anti-human LAG-3 antibody hLA212_H4/L2, the calcineurin inhibitor tacrolimus, and the corticosteroid dexamethasone on CD28 negative T cells and CD57 positive T cells was investigated in the assay system of Example 13. […] Out of the living cells, a CD3 positive and CD8 negative fraction and a CD3 positive and CD8 positive fraction were analyzed as CD4 T cells and CD8 T cells, respectively.

The next test concerns CD28 negative T cells. Description: CD28 negative T cell number after CD3/CD28 stimulation of human PBMCs for 4 days, flow cytometry. The note with it: tacrolimus 10 nM, dexamethasone 1 μM, two donors. As for the experimental part:
as §1, §2

The subject of test [1] is perforin positive CD8 T cells. Description: Perforin positive CD8 T cell number after CD3/CD28 stimulation of human PBMCs for 4 days, flow cytometry. The note with it: hLA212_H4/L2 10 μg/mL, tacrolimus 10 nM, PBMCs of two donors. The protocol: as §1, with “minutes. Subsequently, the cell surface was stained by reaction at 4° C. for 30 minutes with fluorescently labeled antibodies diluted with a FACS buffer containing a LIVE/DEAD Fixable Dead Cell Stain Kit-near-IR fluorescent reactive dye (manufactured by Invitrogen Corp.), followed by washing with a FACS buffer.” for “minutes.”, “cells. […]” for “cells.”

The test system of another test is T cells (total number). Description: Total T cell number after CD3/CD28 stimulation of human PBMCs for 4 days, flow cytometry. The note with it: hLA212_H4/L2 10 μg/mL, tacrolimus 10 nM, dexamethasone 1 μM, PBMCs of two donors. As for the experimental part:
as §1, with “minutes. Subsequently, the cell surface was stained by reaction at 4° C. for 30 minutes with fluorescently labeled antibodies diluted with a FACS buffer containing a LIVE/DEAD Fixable Dead Cell Stain Kit-near-IR fluorescent reactive dye (manufactured by Invitrogen Corp.), followed by washing with a FACS buffer.” for “minutes.”, “cells. […]” for “cells.”

Setting [2] is: hLA212_H4/L2 10, 1, 0.1 μg/mL (effect concentration dependent).

Take `C=CC[C@@H]1/C=C(\C)C[C@H](C)C[C@H](OC)[C@H]2O[C@@](O)(C(=O)C(=O)N3CCCC[C@H]3C(=O)O[C@H](/C(C)=C/[C@@H]3CC[C@@H](O)[C@H](OC)C3)[C@H](C)[C@@H](O)CC1=O)[C@H](C)C[C@@H]2OC` [tacrolimus, reference compound]: the “number of CD57 positive CD8 T cells” value in the test with CD57 positive T cells (setting [2]) was “evident reduction in the number of CD57 positive CD8 T cells as found for the LAG-3 antibody was not observed”. For the same compound, in the test on CD57 positive T cells (hLA212_H4/L2 10, 1, 0.1 μg/mL), the “number of CD57 positive CD4 T cells” value is given as “such an effect was hardly observed”. The “number of CD28 negative CD8 T cells” value in the test with CD28 negative T cells (setting [2]) was “evident reduction in the number of CD28 negative CD8 T cells as found for the LAG-3 antibody was not observed”. Further, in the test with CD28 negative T cells (hLA212_H4/L2 10, 1, 0.1 μg/mL), the “number of CD28 negative CD4 T cells” value is listed as “hardly effective or rather increased the cell number”. In test [1], the “number of perforin positive CD8 T cells, compared with the control” value is given as “rarely different from those of the control”. In addition, the “total number of T cells after culture, compared with the control” value in the test on T cells (total number) is on record as “slightly reduced”.

The values above are taken from patent publication US12145987B2, “Method for depleting cytotoxic T cells using an anti-LAG-3 antibody composition” (Daiichi Sankyo Company, Limited, priority 2017, dated 2024).
